Reference: ChEMBL document CHEMBL5465560, “Selectivity Literature for EUbOPEN Chemogenomic Library” (2024)

Tests used:
[1] = target: 5'-AMP-activated protein kinase catalytic subunit alpha-1 (Homo sapiens, UniProt Q13131); assay: Selectivity interaction (KinomeScan (DiscoverX)) EUB0001049a PRKAA1; details: at 1 µM
[2] = target: Histone-lysine N-methyltransferase 2A (Homo sapiens) (UniProt Q03164); details: at 1 µM
[3] = target: T1, cGMP-dependent protein kinase 2 (Homo sapiens) (UniProt Q13237); assay: Selectivity interaction (KinomeScan (DiscoverX)) EUB0000229b PRKG2; details: at 10 µM
T1 sequence (whole entry): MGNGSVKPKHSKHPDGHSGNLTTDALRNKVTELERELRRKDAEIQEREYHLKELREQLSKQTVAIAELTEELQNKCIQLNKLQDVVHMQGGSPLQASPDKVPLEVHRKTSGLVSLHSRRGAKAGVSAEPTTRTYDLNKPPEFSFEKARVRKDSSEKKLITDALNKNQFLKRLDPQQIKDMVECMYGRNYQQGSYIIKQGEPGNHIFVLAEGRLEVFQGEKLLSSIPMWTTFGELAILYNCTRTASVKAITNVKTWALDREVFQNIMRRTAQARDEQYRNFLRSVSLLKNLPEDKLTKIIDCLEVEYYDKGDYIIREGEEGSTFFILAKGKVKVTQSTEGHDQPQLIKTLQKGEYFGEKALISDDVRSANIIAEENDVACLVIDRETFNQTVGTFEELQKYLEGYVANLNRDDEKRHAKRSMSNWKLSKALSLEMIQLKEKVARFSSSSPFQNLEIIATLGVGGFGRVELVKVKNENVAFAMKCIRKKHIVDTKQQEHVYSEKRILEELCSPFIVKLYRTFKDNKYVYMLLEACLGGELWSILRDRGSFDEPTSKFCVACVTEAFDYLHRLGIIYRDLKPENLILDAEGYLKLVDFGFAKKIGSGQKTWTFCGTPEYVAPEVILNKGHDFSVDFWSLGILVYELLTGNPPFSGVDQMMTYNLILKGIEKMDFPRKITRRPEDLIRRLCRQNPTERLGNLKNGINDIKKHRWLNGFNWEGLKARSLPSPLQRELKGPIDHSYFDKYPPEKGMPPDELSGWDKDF

[4] = target: Serine/threonine-protein kinase WNK3 (Homo sapiens) (UniProt Q9BYP7); assay: Selectivity interaction (KinomeScan (DiscoverX)) EUB0000229b WNK3; details: at 10 µM
[5] = target: Serine/threonine-protein kinase Nek6 (Homo sapiens) (UniProt Q9HC98); assay: Selectivity interaction (Kinase panel (KiNativ target engagement assay in Jurkat cells)) EUB0001635a NEK6; type: cell-based; details: Selectivity number of off-targets 0.0, Selectivity number of targets 233.0, Source Knowledge https://www.sciencedirect.com/science/article/pii/S2451945619300674?via%3Dihub, at 1 µM
[6] = target: Calcium/calmodulin-dependent protein kinase kinase 2 (Homo sapiens) (UniProt Q96RR4); assay: Selectivity interaction (Kinase panel (Invitrogen)) EUB0000639a CAMKK2; details: at 200 nM
[7] = target: T2, Dual specificity mitogen-activated protein kinase kinase 4 (Homo sapiens) (UniProt P45985); assay: Selectivity interaction (Kinase screening (Upstate/Millipore)) EUB0000604a MAP2K4
T2 sequence (whole entry): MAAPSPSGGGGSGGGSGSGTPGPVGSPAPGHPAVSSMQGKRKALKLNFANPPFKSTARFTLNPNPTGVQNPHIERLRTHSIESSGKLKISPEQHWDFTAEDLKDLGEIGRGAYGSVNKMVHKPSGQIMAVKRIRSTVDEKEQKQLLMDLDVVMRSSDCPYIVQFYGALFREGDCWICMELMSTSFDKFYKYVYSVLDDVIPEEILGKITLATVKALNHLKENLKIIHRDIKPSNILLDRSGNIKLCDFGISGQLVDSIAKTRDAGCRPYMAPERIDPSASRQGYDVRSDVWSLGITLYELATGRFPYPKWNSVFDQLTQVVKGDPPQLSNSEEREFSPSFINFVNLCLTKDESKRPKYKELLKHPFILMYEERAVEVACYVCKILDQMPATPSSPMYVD

[8] = target: Interferon-induced, double-stranded RNA-activated protein kinase (Homo sapiens) (UniProt P19525); assay: Selectivity interaction (Ambit KINOMEscan and KiNATiv profiling in Jurkat cells) EUB0000090b EIF2AK2; type: cell-based; details: at 1 µM
[9] = system: Tyrosine-protein kinase ABL1 (Homo sapiens), P00519 [E255K]; details: at 10 µM
[10] = target: Calcium/calmodulin-dependent protein kinase type 1 (Homo sapiens) (UniProt Q14012); assay: Selectivity interaction (KinomeScan (DiscoverX)) EUB0001619a CAMK1; details: at 1 µM
[11] = target: Ribosomal protein S6 kinase alpha-1 (Homo sapiens, UniProt Q15418); assay: Selectivity interaction (Upstate Kinase Profiler service (Millipore)) EUB0000056c RPS6KA1; details: at 1 µM
[12] = target: T3, Mitogen-activated protein kinase 13 (Homo sapiens) (UniProt O15264); assay: Selectivity interaction (KinomeScan (DiscoverX)) EUB0000655a MAPK13; details: at 10 µM
T3 sequence (whole entry): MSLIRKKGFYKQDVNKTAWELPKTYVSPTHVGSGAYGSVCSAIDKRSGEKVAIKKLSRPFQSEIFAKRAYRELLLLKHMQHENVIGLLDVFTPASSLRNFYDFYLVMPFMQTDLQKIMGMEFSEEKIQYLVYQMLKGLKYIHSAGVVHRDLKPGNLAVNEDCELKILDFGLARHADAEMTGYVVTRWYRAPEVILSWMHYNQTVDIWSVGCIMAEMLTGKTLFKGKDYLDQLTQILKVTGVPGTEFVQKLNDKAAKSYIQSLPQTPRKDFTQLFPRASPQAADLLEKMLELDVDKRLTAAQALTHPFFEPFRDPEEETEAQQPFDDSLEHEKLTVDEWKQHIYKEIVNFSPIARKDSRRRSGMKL

[13] = system: Dual specificity mitogen-activated protein kinase kinase 6 (Homo sapiens), P52564 [S207E,T211E]; assay: Selectivity interaction (LanthaScreen Eu Kinase Binding Assay) EUB0001632a MAP2K6; details: at 10 µM
[14] = target: Serine/threonine-protein kinase MRCK gamma (Homo sapiens) (UniProt Q6DT37); assay: Selectivity interaction (Kinase panel (Z-LYTE Assay)) EUB0001632a CDC42BPG; details: at 10 µM
[15] = target: Bone morphogenetic protein receptor type-1A (Homo sapiens, UniProt P36894); assay: Selectivity interaction (LanthaScreen Eu Kinase Binding Assay) EUB0001632a BMPR1A; details: at 10 µM

Chain of Calcium/calmodulin-dependent protein kinase type 1 (Homo sapiens) (Q14012 whole entry, looked up): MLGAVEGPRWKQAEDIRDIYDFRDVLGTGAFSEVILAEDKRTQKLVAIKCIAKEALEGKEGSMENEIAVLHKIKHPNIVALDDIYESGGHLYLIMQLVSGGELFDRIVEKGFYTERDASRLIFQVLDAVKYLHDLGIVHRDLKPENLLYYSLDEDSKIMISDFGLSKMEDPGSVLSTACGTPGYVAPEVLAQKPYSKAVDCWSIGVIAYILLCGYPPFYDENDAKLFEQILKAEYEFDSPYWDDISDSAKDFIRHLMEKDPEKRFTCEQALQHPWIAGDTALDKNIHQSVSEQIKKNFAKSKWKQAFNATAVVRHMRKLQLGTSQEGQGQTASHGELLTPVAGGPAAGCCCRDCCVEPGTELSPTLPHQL
Chain of Ribosomal protein S6 kinase alpha-1 (Q15418 whole entry): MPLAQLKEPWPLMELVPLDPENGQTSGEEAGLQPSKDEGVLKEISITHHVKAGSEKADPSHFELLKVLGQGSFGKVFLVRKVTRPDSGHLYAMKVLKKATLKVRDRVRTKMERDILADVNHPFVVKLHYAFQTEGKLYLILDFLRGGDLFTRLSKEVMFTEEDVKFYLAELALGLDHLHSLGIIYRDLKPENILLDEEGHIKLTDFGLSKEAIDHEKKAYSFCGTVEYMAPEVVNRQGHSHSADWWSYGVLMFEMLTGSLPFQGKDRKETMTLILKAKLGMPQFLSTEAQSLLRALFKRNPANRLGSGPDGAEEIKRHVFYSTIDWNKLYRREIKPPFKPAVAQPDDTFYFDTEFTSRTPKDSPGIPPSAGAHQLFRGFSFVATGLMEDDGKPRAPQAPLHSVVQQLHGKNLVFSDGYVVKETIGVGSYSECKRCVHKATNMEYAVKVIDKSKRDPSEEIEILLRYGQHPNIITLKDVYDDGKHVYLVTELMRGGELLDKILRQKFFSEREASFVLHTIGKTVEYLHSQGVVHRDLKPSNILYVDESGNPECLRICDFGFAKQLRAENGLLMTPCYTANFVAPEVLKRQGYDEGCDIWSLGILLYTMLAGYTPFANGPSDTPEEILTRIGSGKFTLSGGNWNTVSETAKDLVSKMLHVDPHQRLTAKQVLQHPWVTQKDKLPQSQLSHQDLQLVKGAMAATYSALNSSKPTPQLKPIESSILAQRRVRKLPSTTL
Chain of Histone-lysine N-methyltransferase 2A (Homo sapiens) (Q03164 1-2718 limits assumed): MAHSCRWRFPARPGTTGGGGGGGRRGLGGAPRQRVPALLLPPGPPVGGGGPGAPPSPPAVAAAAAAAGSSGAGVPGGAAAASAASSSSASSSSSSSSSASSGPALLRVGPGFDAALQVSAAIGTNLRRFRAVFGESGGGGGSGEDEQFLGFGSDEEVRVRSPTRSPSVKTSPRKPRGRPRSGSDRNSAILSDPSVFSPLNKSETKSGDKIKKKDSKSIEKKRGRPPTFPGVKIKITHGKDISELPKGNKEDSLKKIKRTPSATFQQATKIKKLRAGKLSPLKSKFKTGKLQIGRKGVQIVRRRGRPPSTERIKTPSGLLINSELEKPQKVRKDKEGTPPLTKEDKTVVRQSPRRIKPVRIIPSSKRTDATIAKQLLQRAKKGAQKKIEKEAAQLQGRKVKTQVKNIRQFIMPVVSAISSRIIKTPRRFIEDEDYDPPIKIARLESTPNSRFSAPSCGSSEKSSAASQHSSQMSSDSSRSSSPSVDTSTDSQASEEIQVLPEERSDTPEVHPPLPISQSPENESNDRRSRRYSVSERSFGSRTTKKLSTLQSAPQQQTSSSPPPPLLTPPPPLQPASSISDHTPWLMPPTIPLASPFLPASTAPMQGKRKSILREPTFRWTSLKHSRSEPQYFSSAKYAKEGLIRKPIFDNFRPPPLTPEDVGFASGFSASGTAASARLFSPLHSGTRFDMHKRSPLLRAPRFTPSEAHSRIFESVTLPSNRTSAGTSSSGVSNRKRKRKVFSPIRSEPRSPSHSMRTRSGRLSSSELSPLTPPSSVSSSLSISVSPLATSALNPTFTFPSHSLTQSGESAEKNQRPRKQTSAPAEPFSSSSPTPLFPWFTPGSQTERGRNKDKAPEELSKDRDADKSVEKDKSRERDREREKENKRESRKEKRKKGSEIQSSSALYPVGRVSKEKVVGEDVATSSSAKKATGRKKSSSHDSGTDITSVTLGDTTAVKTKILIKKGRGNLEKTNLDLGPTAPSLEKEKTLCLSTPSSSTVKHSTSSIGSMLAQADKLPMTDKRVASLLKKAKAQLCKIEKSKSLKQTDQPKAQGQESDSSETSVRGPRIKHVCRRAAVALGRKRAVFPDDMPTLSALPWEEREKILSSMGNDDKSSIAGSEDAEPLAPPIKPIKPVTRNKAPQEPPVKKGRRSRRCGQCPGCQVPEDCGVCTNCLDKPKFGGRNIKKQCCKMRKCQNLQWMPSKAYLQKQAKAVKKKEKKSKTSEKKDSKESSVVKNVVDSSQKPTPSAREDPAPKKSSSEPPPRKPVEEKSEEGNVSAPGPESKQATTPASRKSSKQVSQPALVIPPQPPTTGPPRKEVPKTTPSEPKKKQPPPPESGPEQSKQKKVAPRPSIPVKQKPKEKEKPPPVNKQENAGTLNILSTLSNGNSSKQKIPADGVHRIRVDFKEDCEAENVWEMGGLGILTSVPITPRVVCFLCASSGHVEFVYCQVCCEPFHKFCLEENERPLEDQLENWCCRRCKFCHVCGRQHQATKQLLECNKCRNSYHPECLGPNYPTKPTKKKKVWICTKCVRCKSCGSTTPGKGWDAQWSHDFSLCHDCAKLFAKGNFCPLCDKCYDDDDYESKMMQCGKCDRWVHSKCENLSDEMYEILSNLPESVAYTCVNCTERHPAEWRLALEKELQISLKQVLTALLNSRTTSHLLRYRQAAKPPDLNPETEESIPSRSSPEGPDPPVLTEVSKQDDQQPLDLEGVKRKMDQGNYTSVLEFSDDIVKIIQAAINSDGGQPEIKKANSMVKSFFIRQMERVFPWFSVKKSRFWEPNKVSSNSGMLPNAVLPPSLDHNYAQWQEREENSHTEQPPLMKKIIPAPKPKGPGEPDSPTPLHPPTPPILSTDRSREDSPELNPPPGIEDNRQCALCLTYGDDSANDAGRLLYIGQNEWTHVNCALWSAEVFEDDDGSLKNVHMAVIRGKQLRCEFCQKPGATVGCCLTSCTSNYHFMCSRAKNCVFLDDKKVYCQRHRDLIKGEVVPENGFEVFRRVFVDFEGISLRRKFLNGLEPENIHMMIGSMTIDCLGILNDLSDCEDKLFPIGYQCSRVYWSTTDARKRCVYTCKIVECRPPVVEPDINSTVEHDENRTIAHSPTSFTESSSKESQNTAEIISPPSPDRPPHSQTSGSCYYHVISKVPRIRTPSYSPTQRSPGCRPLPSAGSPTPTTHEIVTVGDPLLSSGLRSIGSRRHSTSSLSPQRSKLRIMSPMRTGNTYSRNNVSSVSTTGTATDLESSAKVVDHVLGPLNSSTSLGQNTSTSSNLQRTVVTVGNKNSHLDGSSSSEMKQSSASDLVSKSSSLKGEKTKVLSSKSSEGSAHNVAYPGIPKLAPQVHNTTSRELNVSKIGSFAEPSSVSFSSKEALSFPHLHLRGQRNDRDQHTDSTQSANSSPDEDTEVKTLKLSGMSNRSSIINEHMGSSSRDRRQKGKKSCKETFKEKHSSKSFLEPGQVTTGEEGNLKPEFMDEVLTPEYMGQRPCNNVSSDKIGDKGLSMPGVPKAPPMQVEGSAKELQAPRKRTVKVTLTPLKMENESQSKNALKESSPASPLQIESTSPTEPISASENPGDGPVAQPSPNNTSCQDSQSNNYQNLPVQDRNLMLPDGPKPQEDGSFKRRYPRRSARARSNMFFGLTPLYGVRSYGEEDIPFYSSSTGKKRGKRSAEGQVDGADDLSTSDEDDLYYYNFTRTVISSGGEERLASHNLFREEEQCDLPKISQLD
Chain of Histone-lysine N-methyltransferase 2A (Homo sapiens) (Q03164 2719-3969 limits assumed): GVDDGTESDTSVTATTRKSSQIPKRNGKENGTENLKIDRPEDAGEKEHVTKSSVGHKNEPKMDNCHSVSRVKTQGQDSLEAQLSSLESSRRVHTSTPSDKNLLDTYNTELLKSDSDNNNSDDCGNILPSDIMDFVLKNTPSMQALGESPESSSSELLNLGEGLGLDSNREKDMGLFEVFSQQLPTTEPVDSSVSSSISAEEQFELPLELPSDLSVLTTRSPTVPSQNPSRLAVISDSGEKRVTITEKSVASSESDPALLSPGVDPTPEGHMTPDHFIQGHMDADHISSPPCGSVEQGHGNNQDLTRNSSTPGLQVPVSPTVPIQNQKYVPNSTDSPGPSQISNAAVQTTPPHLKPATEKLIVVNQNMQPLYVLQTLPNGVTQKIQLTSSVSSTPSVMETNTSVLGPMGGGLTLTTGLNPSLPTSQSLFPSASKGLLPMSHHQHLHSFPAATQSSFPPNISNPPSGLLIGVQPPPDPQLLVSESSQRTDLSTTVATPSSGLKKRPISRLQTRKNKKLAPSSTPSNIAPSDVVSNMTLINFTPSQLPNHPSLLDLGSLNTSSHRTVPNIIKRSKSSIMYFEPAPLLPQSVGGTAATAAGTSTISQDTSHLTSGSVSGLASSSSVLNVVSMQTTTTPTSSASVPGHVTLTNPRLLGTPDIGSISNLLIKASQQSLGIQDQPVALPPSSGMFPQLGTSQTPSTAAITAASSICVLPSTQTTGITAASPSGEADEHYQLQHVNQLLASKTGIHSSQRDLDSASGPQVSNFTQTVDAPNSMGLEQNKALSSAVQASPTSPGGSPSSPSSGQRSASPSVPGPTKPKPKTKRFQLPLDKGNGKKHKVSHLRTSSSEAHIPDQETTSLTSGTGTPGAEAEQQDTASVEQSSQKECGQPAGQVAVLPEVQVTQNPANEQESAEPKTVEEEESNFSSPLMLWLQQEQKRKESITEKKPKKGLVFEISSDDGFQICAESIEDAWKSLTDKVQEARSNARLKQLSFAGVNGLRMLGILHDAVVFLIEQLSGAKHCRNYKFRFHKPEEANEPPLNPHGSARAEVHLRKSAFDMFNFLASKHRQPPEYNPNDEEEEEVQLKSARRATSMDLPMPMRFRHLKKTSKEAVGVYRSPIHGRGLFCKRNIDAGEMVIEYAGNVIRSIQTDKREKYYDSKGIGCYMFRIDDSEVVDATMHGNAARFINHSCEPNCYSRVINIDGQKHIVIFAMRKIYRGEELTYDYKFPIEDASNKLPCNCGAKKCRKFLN

Molecule `COc1cc(Nc2nc(C)cc(-c3cnn4nc(OC)ccc34)n2)cc(C(F)(F)F)c1` has a % of control [1] of 87%.
With `CNCCN1CCC(c2cc(CN(C)C(=O)c3cccc(Oc4ccccc4)c3)ccn2)CC1` the % activity [2] was > 90%.
Molecule `COc1cc(N(C)c2ccnc3ccc(C(F)(F)F)cc23)cc(OC)c1OC` has a % binding [3] of 78% and a % binding [4] of 80%.
In the case of `C=CC(=O)Nc1ccc(C(=O)Nc2[nH]nc3c2CN(C(=O)N[C@H](CN(C)C)c2ccccc2)C3(C)C)cc1`, the % of engagement [5] is reported as 2.3%.
In the case of `CC[C@@H]1[C@H](F)C(=O)N[C@@H]1COc1nccc2cc(C(N)=O)c(OC)cc12` [ZIMLOVISERTIB], the % of inhibition [6] is reported as -1.97%.
`Cc1cnc(Nc2ccc(F)cc2Cl)nc1-c1c[nH]c(C(=O)N[C@H](CO)c2cccc(Cl)c2)c1` gave a % of inhibition [7] of 69%.
In the case of `CN(C)C/C=C/C(=O)Nc1ccc(C(=O)N2CCCC(Nc3ncc(Cl)c(-c4c[nH]c5ccccc45)n3)C2)cc1` (stereo not given), the % of control [8] is reported as 92%.
`Cc1cc([C@@H](C)Nc2ccccc2C(=O)O)c2nc(N3CCOCC3)cc(=O)n2c1` [AZD-6482] gave a % of control [9] of 94%.
Molecule `N#Cc1cccc(-c2c[nH]c3ncnc(N4CCOCC4)c23)c1` has a % of control [10] of 89%.
With `Cc1ccc(-c2ccc3c(ccc4sc5c(c43)NC[C@@H](C)NC5=O)n2)cn1` the % of inhibition [11] was 17%.
In the case of `CN(C)CCOc1ccc(-c2nc(-c3ccncc3)c(-c3ccc4c(c3)CC/C4=N\O)[nH]2)cc1`, the % of control [12] is reported as 87%.
Work on `Cn1cc(-n2cnc3c(NCc4nc5cc(Cl)c(Cl)cc5[nH]4)nc(N4CCOCC4)nc32)cn1` yielded a % of inhibition [13] of -8.6%, a % of control [14] of 2.69% and a % of inhibition [15] of -8.67%.
